Measurements reported in US20240299554A1, “PRODRUGS WITH 1-(DISULFANYL)ALKYLOXY-CARBONYL UNITS” (PHARMACYTICS B.V., priority 2021, published 2024).

Legend:
[1] = Oral bioavailability of conjugates in female Beagle dogs (AUC of parent drug); assay type: in vivo; details: for Δ AUC (increase of AUC of parent drug derived from conjugate compared to parent drug as such): female Beagle dogs, single oral dose 7.5 or 15 μmol/kg by gavage, 24 h sampling, Table 1a; for generation of parent drug after oral administration: oral administration to beagle dogs
Experimental: Relative and absolute bioavailability may be determined in different animal models and according to different protocols. The following protocol is typical for determining bioavailability in female Beagle dogs and was used in the present invention. The animals were deprived from food over a time period of 8 h prior to administration of the compounds according to the present invention and over a time period of 2 h after administration of the compounds according to the present invention. Water was supplied without limitation. On the study day, the animals received the compounds according to the present invention, at a single dose of 7.5 or 15 μmol/kg, by oral gavage, formulated in mixtures of propylene glycol, ethanol and 0.9% NaCl+5% mannitol in water. Blood samples were collected from the jugular vein on the following time points: 0.25, 0.5, 1, 2, 4, 8 and 24 hours after dosing of the compounds according to the present invention. […] Pharmacokinetic parameters were calculated from concentration versus time data using non-compartmental pharmacokinetic methods using Phoenix pharmacokinetic software. Data are compared to the parent drugs to establish improvement of its oral bioavailability by the compounds according to the present invention.

[2] = In vitro treatment of conjugates with glutathione, release of parent drug followed by LC-MS at 254 nm; assay type: in vitro ADME; details: for fate of glutathione adduct formed during glutathione treatment: adduct formed in situ from the conjugate; for formation of parent drug on in vitro treatment with glutathione: glutathione 5 eq., phosphate buffer pH=7.6, 37° C. (for 102)
Excerpt: (§1) FIGS. 1A and 1B are graphs showing the release of the drug Cinacalcet after an in vitro treatment of Cinacalcet conjugate 102 (not according to the invention) with glutathione. […] FIG. 1B represent the concentration of Cinacalcet conjugate 102 and Cinacalcet versus time. The presence of the compounds was followed at 254 nm by LC-MS.
as §1, with “3A” for “1A”, “3B” for “1B”, “60 (according” for “102 (not according”, “60” for “102”
The results are shown in FIGS. 1A and B. In FIG. 1A is shown the disappearance of conjugate 102 over time after treatment with glutathione, the formation of Cinacalcet and the appearance and partial disappearance of an intermediate (HS-Et-Cinacalcet) and a glutathione adduct (GSS—Et-Cinacalcet)—see below.

| SMILES | Δ AUC (increase of AUC of parent drug derived from conjugate compared to parent drug as such) [1] | formation of parent drug on in vitro treatment with glutathione [2] | generation of parent drug after oral administration [1] | other results |
| --- | --- | --- | --- | --- |
| CCCN(COCCSSCOC(=O)N(CCCc1cccc(C(F)(F)F)c1)[C@H](C)c1cccc2ccccc12)C(=O)O[C@@H]1O[C@H](CO)[C@H](O)[C@H](O)[C@H]1O [Compound 93a] | +++ (+++ denotes a >4-fold increase of the AUC compared to the parent drug) | – | – | – |
| C[C@H](c1cccc2ccccc12)N(CCCc1cccc(C(F)(F)F)c1)C(=O)OCCSSC[C@H](NC(=O)CC[C@H](N)C(=O)O)C(=O)NCC(=O)O [GSS-Et-Cinacalcet] | – | – | – | fate of glutathione adduct formed during glutathione treatment [2]: somewhat more stable than the mercaptoethyl carbamate |
| C[C@H](c1cccc2ccccc12)N(CCCc1cccc(C(F)(F)F)c1)C(=O)OCCSSCCO[C@@H]1O[C@H](CO)[C@@H](O)[C@H](O)[C@H]1O [Compound 102] | – | very slow and incomplete formation of Cinacalcet | did not produce any detectable amount of the drug Cinacalcet | conversion of pro-drug into parent drug within 8 hours ([2]; glutathione treatment): far from being completely converted into Cinacalcet; conversion of pro-drug into parent drug in 23 hours ([2]; glutathione treatment, 23 hours): less than half |
| C[C@H](c1cccc2ccccc12)N(CCCc1cccc(C(F)(F)F)c1)C(=O)OCSSCCO[C@@H]1O[C@H](CO)[C@@H](O)[C@H](O)[C@H]1O [Compound 60] | ++ (++ denotes a 2 to 4-fold increase of the AUC compared to the parent drug) | very fast and complete formation of Cinacalcet | readily resulted in the generation of significant amounts of cinacalcet | – |
| CN(CC[C@@H](Oc1cccc2ccccc12)c1cccs1)C(=O)OCCSSCCO[C@@H]1O[C@H](CO)[C@@H](O)[C@H](O)[C@H]1O [Compound 103] | – | very slow and incomplete formation of duloxetine | did not produce any detectable amount of Duloxetine | conversion of pro-drug into parent drug within 8 hours ([2]; glutathione treatment): less than half |
| CN(CC[C@@H](Oc1cccc2ccccc12)c1cccs1)C(=O)OCSSCCO[C@@H]1O[C@H](CO)[C@H](O)[C@H](O)[C@H]1O [Compound 61] | ++ (++ denotes a 2 to 4-fold increase of the AUC compared to the parent drug) | very fast and complete formation of Duloxetine | readily resulted in the generation of significant amounts of duloxetine | – |
| C[C@H](c1cccc2ccccc12)N(CCCc1cccc(C(F)(F)F)c1)C(=O)OCSSC[C@H](NC(=O)CC[C@H](N)C(=O)O)C(=O)NCC(=O)O [GSS-Me-Cinacalcet] | – | – | – | fate of glutathione adduct formed during glutathione treatment [2]: completely converted into Cinacalcet within one hour |
| CN(CC[C@H](Oc1cccc2ccccc12)c1cccs1)C(=O)OCSSC[C@H](NC(=O)CC[C@H](N)C(=O)O)C(=O)NCC(=O)O [GSS-Me-Duloxetine] | – | – | – | fate of glutathione adduct formed during glutathione treatment [2]: completely converted into Duloxetine within one hour |
| C[C@H](c1cccc2ccccc12)N(CCCc1cccc(C(F)(F)F)c1)C(=O)OCSSCCNC(=O)O[C@@H]1O[C@H](CO)[C@@H](O)[C@H](O)[C@H]1O [Compound 90] | + (+ denotes a 1.1 to 2-fold increase of the AUC compared to parent drug) | – | – | – |
| CCCN(COCCSSCOC(=O)N(CCCc1cccc(C(F)(F)F)c1)[C@H](C)c1cccc2ccccc12)C(=O)O[C@@H]1O[C@H](CF)[C@@H](O)[C@H](O)[C@H]1O [Compound 92b] | +++ (+++ denotes a >4-fold increase of the AUC compared to the parent drug) | – | – | – |
| CCCN(COCCSSCOC(=O)N(CCCc1cccc(C(F)(F)F)c1)[C@H](C)c1cccc2ccccc12)C(=O)O[C@@H]1O[C@H](CO)[C@@H](O)[C@H](O)[C@H]1O [Compound 92a] | +++ (+++ denotes a >4-fold increase of the AUC compared to the parent drug) | – | – | – |
